In the experiment the test system is PDCD1-mutant lymphoma cells (primary CTCL). Briefly: Inhibitor treatment of human cells in vitro, division index, PDCD1-mutant CTCL cells. It counts as cell-based. As to conditions: 2-DG 1 mM, everolimus 0.1 μM, BMS-303141 10 μM; anti-CD3/anti-CD28 beads, 6 days; FIG. 7E. The method, then: FIGS. 7A-7H show ACLY dependency and AP-1 activation in human PDCD1 defective T-NHL. […] CNA, copy number aberrations. FIG. 7B GSEA for the indicated gene sets based on RNA-seq data from the 21 CTCL patients shown in (a). NES, normalized enrichment score; FDR, false discovery rate. […] P=one-way ANOVA and two-sided Student's t-test. Shown are the mean±SD and individual data points. […] FACS-sorted malignant cells were stimulated with anti-CD3/anti-CD28 beads, and 2-NBDG uptake was determined at the indicated time points. P=two-sided Student's t-test. Shown are the mean±SEM and individual data points. […] CFSE, carboxyfluorescein succinimidyl ester. P=two-sided Student's t-test. The data are presented as the mean±SEM and individual data points. […] Legend as in (5a). […] FIG. 7H GSEA for the indicated gene sets with RNA-seq data from 21 CTCL PDCD1mut” or “PDCD1 wt, and three patients with hyperprogression. NES, normalized enrichment score; FDR, false discovery rate. FIGS. 7A and 7B, Data from a single experiment with 21 patients. FIGS. 7C and 7D, Data from one experiment with three patients per group and three healthy donors. FIG. 7E, Data from one experiment with three patients and three healthy donors. FIGS. 7F and 7G, Data from one experiment with three patients per group. FIG. 7H, Data from a single experiment.
Isolation of primary human CTCL cells. This study was approved by the Northwestern University Institutional Review Board. Patients provided informed consent for inclusion in the study. […] The tumor burden for each patient was determined using well-validated clinical markers, taking whichever value was higher between Sezary cell counts or the CD26 negative cell number by clinical flow cytometry. These were analyzed in conjunction with white blood cell and absolute lymphocyte counts.
Inhibitor treatment of human cells in vitro Malignant CTCL cells and CD4^+ T cells from healthy donors were isolated as previously described. […] After 6 days, the cells were analyzed by flow cytometry, and the division index was determined using the FlowJo proliferation tool (v10.6, FlowJo LLC).

Molecules are shown by their SMILES.

As for `O=CC[C@@H](O)[C@H](O)[C@H](O)CO` [2-DG, 2-deoxy-D-glucose], the “viability, division and proliferation of PDCD1-mutant cancer cells (relative division index)” value is “significantly impaired cell proliferation”.

As for `COc1ccc(-c2ccccc2)cc1NS(=O)(=O)c1cc(Cl)cc(Cl)c1O` [BMS-303141], the “viability, division and proliferation of PDCD1-mutant cancer cells (relative division index)” value is reported as “significantly impaired cell proliferation”.

Source of the values: patent US20240316012A1, “METHODS FOR TREATING LYMPHOMA” (Northwestern University, priority 2023, published 2024).
